Test results published in the NIST ThermoML archive (doi:10.1021/je200327s).
± gives the expanded uncertainty stated by the source.

Tests used:
[1] = 101.3 kPa, Liquid, Vibrating tube method
[2] = xn = mol fraction of the nth substance listed; details: 101 kPa, Liquid, Vibrating tube method

CC(C)CC(C)(C)C [2,2,4-trimethylpentane]
mass density ([1]; 298.2 K): 687.721 ± 0.28 kg/m3 | mass density ([1]; 313.2 K): 675.225 ± 0.29 kg/m3

C1CCCCC1 [cyclohexane]
mass density ([1]; 298.2 K): 773.849 ± 0.27 kg/m3

CCCCCCCCCC [decane]
mass density ([1]; 298.2 K): 726.1 ± 0.4 kg/m3 | mass density ([1]; 313.2 K): 714.726 ± 0.35 kg/m3

c1ccc2c(c1)sc1ccccc12 [dibenzothiophene] + CCCCCCCCCCC
mass density ([2]; 298.2 K, x1 = 0.0035): 738.065 ± 0.35 kg/m3 | mass density ([2]; 298.2 K, x1 = 0.0069): 739.235 ± 0.35 kg/m3 | mass density ([2]; 298.2 K, x1 = 0.0087): 739.863 ± 0.35 kg/m3 | mass density ([2]; 298.2 K, x1 = 0.0186): 743.359 ± 0.35 kg/m3 | mass density ([2]; 298.2 K, x1 = 0.0286): 746.909 ± 0.35 kg/m3 | mass density ([2]; 298.2 K, x1 = 0.0342): 748.935 ± 0.35 kg/m3 | mass density ([2]; 313.2 K, x1 = 0.0035): 726.939 ± 0.35 kg/m3 | mass density ([2]; 313.2 K, x1 = 0.0069): 728.106 ± 0.35 kg/m3 | mass density ([2]; 313.2 K, x1 = 0.0087): 728.741 ± 0.35 kg/m3 | mass density ([2]; 313.2 K, x1 = 0.0186): 732.22 ± 0.35 kg/m3 | mass density ([2]; 313.2 K, x1 = 0.0263): 735.021 ± 0.35 kg/m3 | mass density ([2]; 313.2 K, x1 = 0.0286): 735.767 ± 0.35 kg/m3 | mass density ([2]; 313.2 K, x1 = 0.0342): 737.778 ± 0.35 kg/m3 | mass density ([2]; 313.2 K, x1 = 0.0436): 741.11 ± 0.36 kg/m3

c1ccc2c(c1)sc1ccccc12 [dibenzothiophene] + CCCCCCCCCCCC
mass density ([2]; 298.2 K, x1 = 0.0074): 747.569 ± 0.24 kg/m3 | mass density ([2]; 298.2 K, x1 = 0.0094): 748.147 ± 0.24 kg/m3 | mass density ([2]; 298.2 K, x1 = 0.0191): 751.276 ± 0.24 kg/m3 | mass density ([2]; 298.2 K, x1 = 0.0285): 754.322 ± 0.24 kg/m3 | mass density ([2]; 298.2 K, x1 = 0.0378): 757.354 ± 0.24 kg/m3 | mass density ([2]; 313.2 K, x1 = 0.0037): 735.448 ± 0.25 kg/m3 | mass density ([2]; 313.2 K, x1 = 0.0046): 735.694 ± 0.24 kg/m3 | mass density ([2]; 313.2 K, x1 = 0.0074): 736.633 ± 0.24 kg/m3 | mass density ([2]; 313.2 K, x1 = 0.0098): 737.333 ± 0.24 kg/m3 | mass density ([2]; 313.2 K, x1 = 0.0142): 738.752 ± 0.24 kg/m3 | mass density ([2]; 313.2 K, x1 = 0.0187): 740.177 ± 0.24 kg/m3 | mass density ([2]; 313.2 K, x1 = 0.024): 741.874 ± 0.25 kg/m3 | mass density ([2]; 313.2 K, x1 = 0.0305): 743.953 ± 0.25 kg/m3 | mass density ([2]; 313.2 K, x1 = 0.0325): 744.662 ± 0.25 kg/m3 | mass density ([2]; 313.2 K, x1 = 0.0372): 746.081 ± 0.25 kg/m3 | mass density ([2]; 313.2 K, x1 = 0.0651): 755.317 ± 0.25 kg/m3

CCCCCCCCCCCC [dodecane]
mass density ([1]; 298.2 K): 745.15 ± 0.24 kg/m3 | mass density ([1]; 313.2 K): 734.325 ± 0.24 kg/m3

CCCCCCC [heptane]
mass density ([1]; 298.2 K): 679.857 ± 0.36 kg/m3

CCCCCC [hexane]
mass density ([1]; 298.2 K): 655.039 ± 2.1 kg/m3

CCCCCCCCC [nonane]
mass density ([1]; 298.2 K): 713.938 ± 0.36 kg/m3

CCCCCCCC [octane]
mass density ([1]; 298.2 K): 698.569 ± 1.4 kg/m3 | mass density ([1]; 313.2 K): 686.365 ± 1.3 kg/m3

CCCCC [pentane]
mass density ([1]; 298.2 K): 624.932 ± 0.3 kg/m3

CCCCCCCCCCC [undecane]
mass density ([1]; 298.2 K): 736.786 ± 0.34 kg/m3 | mass density ([1]; 313.2 K): 725.693 ± 0.35 kg/m3
